Laboratory results published in patent US20260103465A1, “GLYCOGEN SYNTHASE KINASE 3 INHIBITORS AND USES THEREOF” (The Broad Institute, Inc., priority 2023, published 2026).
Read-outs that look alike come from different tables or passages of the source.

How the values were obtained:
[1] = biological target: T1, GSK3a (GST-full length GSK3a) (Homo sapiens, UniProt P49840); assay: GSK3a TR-FRET kinase inhibition assay; assay type: biochemical
T1 construct: GST-full length GSK3a [SignalChem G08-10G]; purchased SignalChem G08-10G
T1 sequence (P49840 whole entry): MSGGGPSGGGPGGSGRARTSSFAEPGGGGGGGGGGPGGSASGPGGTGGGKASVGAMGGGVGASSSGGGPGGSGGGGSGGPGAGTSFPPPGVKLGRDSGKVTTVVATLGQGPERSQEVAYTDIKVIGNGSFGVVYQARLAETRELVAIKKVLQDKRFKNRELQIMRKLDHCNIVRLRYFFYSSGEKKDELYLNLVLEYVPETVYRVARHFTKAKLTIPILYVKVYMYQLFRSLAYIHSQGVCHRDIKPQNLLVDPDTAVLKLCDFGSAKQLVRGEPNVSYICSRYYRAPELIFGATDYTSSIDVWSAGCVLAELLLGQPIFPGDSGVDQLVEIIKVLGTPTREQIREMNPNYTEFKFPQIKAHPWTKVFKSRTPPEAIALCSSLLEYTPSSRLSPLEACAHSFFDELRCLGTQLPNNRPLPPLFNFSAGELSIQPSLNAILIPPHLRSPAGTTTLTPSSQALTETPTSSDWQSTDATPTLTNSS
Summary of the method: (§1)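 IC50 derived from normalized 665/615 TR-FRET signal (Tb anti-pSer641 antibody, streptavidin-d2), read after EDTA stop. Reaction: 1 nM GST-full-length enzyme, 30 min compound pre-incubation, 100 min at ambient temperature in Tris pH 7.5 with 1% DMSO, 200 nM biotinylated primed glycogen synthase peptide, ATP 2 μM to 1 mM.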

[2] = biological target: T2, GSK3b (GST-full length GSK3b) (Homo sapiens, UniProt P49841); assay: GSK3b TR-FRET kinase inhibition assay; assay type: biochemical
T2 construct: GST-full length GSK3b: [SignalChem G08-9G]; purchased SignalChem G08-9G
T2 sequence (P49841 whole entry): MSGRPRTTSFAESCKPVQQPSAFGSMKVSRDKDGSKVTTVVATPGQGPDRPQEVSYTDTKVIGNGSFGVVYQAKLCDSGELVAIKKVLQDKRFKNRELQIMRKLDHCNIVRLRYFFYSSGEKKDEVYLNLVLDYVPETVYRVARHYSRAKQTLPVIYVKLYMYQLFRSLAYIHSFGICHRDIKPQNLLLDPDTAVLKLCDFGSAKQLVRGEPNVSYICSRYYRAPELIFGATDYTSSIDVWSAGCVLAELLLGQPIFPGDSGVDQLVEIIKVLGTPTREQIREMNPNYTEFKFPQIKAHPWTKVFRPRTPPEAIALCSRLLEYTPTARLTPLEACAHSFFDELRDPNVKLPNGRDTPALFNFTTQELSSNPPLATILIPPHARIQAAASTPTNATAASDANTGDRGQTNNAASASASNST
Summary of the method: as §1

[3] = 1 mM ATP, Table 3, read-out: GSK3a TR-FRET 1 mM ATP Average IC50
[4] = 1 mM ATP, Table 3, read-out: GSK3b TR-FRET 1 mM ATP Average IC50
[5] = 4 μM ATP, read-out: GSK3α TR-FRET 4 μM ATP GMean IC50
[6] = 2 μM ATP, read-out: GSK3β TR-FRET 2 μM ATP GMean IC50
[7] = 1 mM ATP, Table 5, read-out: GSK3α TR-FRET 1 mM ATP Average IC50
[8] = 1 mM ATP, Table 5, read-out: GSK3β TR-FRET 1 mM ATP Average IC50
[9] = 100 μM ATP, read-out: GSK3a 100 μM ATP Average IC50
[10] = 100 μM ATP, read-out: GSK3b 100 μM ATP Average IC50

IC50 [1, 3]	IC50 [2, 4]	IC50 [1, 7]	IC50 [2, 8]	also measured	SMILES
5 to 20 µM	5 to 20 µM				CC1(C)CC(=O)C2=C(C1)Nc1ncc(F)c(C(F)(F)F)c1C2(C)c1cccc(S(C)(=O)=O)c1 (single isomer, unassigned) [Compound 166B]
				IC50 [1, 5]: 1 to 5 µM; IC50 [2, 6]: 1 to 5 µM	CCC1(c2cccc(-c3ccncc3OC)c2)C2=C(CC(C)(C)CC2=O)Nc2ncc(F)cc21 (single isomer, unassigned) [Compound 1037A]
		5 to 20 µM	5 to 20 µM		CC1(C)CC(=O)C2=C(C1)Nc1ncc(C3CC3)c(C#N)c1C2(C)c1ccccc1 (single isomer, unassigned) [619A]
5 to 20 µM	1 to 5 µM			IC50 [1, 9]: 0.1 to 1 µM; IC50 [2, 10]: 0.1 to 1 µM	CC(C)c1cnc2c(c1)C(C)(c1ccccc1)C1=C(CC(C)(C)CC1=O)N2 (single isomer, unassigned) [Compound 119A]
				IC50 [1, 5]: 0.1 to 1 µM; IC50 [2, 6]: 0.1 to 1 µM	CCC1(c2cccc(-c3cncn3C(C)C)c2)C2=C(CC(C)(C)CC2=O)Nc2ncccc21 (single isomer, unassigned) [Compound 149B]
				IC50 [1, 5]: ≤ 0.1 µM; IC50 ([1]; 1 mM ATP, Table 4, read-out: GSK3α TR-FRET 1 mM ATP GMean IC50): 0.1 to 1 µM; IC50 [2, 6]: ≤ 0.1 µM; IC50 ([2]; 1 mM ATP, Table 4, read-out: GSK3β TR-FRET 1 mM ATP GMean IC50): 1 to 5 µM	CCC1(c2ccccc2)C2=C(CC(C)(C)CC2=O)Nc2ncc(F)cc21 (single isomer, unassigned) [114 A]
		5 to 20 µM	1 to 5 µM		CC1(C)CC(=O)C2=C(C1)Nc1ncc(C(F)F)c(C#N)c1C2(C)c1ccccc1 (single isomer, unassigned) [627B]
		0.1 to 1 µM	0.1 to 1 µM		CC1(C)CC2=C(C(=O)[C@@H]1F)[C@@](C)(c1ccccc1)c1c(ncc(F)c1C#N)N2 (single isomer, unassigned) [Compound 616A]
		5 to 20 µM	1 to 5 µM		Cn1ncc2c3c(ncc21)NC1=C(C(=O)CC(C)(C)C1)C3(C)c1ccccc1 (single isomer, unassigned) [609B]
		5 to 20 µM	5 to 20 µM		CC1(C)CC(=O)C2=C(C1)Nc1ncc(C(C)(F)F)c(C#N)c1C2(C)c1ccccc1 (single isomer, unassigned) [631A]
		1 to 5 µM	1 to 5 µM		CC1(C)CC(=O)C2=C(C1)Nc1ncc3ccccc3c1C2(C)c1ccccc1 (single isomer, unassigned) [606B]
5 to 20 µM	5 to 20 µM				COc1cncc(F)c1-c1cccc(C2(C)C3=C(CC(C)(C)CC3=O)Nc3ncc(C)cc32)c1 (single isomer, unassigned) [Compound 155B]
1 to 5 µM	1 to 5 µM			IC50 [1, 9]: ≤ 0.1 µM; IC50 [2, 10]: 0.1 to 1 µM	Cc1ccnc2c1C(C)(c1ccccc1)C1=C(CC(C)(C)CC1=O)N2 (single isomer, unassigned) [Compound 104A]
				IC50 [1, 5]: > 5 µM; IC50 [2, 6]: > 5 µM	CCC1(c2cccc(-c3ccncc3)c2)C2=C(CC(C)(C)CC2=O)Nc2ncccc21 (single isomer, unassigned) [Compound 1017B]
		≤ 0.1 µM	0.1 to 1 µM		CC1(C)CC2=C(C(=O)N1)C(C)(c1cccc(S(C)(=O)=O)c1)c1cccnc1N2 (single isomer, unassigned) [630A]
				IC50 [1, 5]: ≤ 0.1 µM; IC50 [2, 6]: ≤ 0.1 µM	CCC1(c2ccccc2)C2=C(CC3(CCC3)CC2=O)Nc2ncccc21 (single isomer, unassigned) [110 A]
0.1 to 1 µM	0.1 to 1 µM				CC(C)(C)Cn1nccc1-c1cccc(C2(C)C3=C(CC(C)(C)CC3=O)Nc3ncc(F)cc32)c1 (single isomer, unassigned) [Compound 160A]
		5 to 20 µM	5 to 20 µM		C=C(C)c1cnc2c(c1C#N)C(C)(c1ccccc1)C1=C(CC(C)(C)CC1=O)N2 (single isomer, unassigned) [620B]
1 to 5 µM	5 to 20 µM				CC1(C)CC(=O)C2=C(C1)Nc1ncccc1C2(C)c1cccc(-c2ccncc2C(C)(C)C)c1 (single isomer, unassigned) [Compound 152A]
		5 to 20 µM	5 to 20 µM		CC1(C)CC(=O)C2=C(C1)Nc1ncc(C#N)c(C#N)c1C2(C)c1ccccc1 (single isomer, unassigned) [605B]
